In patent US20210253651A1, “METHOD FOR PRODUCING ORGANIC COMPOUND-ENCAPSULATING FERRITIN” (Ajinomoto Co., Inc., priority 2018, published 2021):
Read-outs that look alike come from different tables or passages of the source.

Assays:
FTH ferritin = target: T1, FTH ferritin (Homo sapiens, UniProt P02794); assay: one-step process incorporation of small molecule agents into FTH ferritin; type: physicochemical; details: for Incorporation efficiency (wt %) / Number of agent incorporated: 60 min; for Optimal pH in reaction: pH of buffer giving the largest amount of incorporation within ferritin
T1 construct: made in house; host or cells: Escherichia coli BL21 (DE3), plasmid pET20-FTH
T1 sequence (P02794 whole entry): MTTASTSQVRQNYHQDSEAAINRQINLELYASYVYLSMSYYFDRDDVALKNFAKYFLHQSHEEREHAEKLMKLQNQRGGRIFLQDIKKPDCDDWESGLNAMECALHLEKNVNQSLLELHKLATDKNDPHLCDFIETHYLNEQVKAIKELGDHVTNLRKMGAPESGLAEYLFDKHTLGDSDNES
Description: All of the reactions were performed in 0.1 mL volume. […] The absorbances were measured using spectrophotometer (DU-800, Beckman Coulter Inc.) for these solutions, and the concentration of contained protein was determined using the protein assay CBB solution (Nacalai Tesque, Inc.) as well as bovine albumin as a standard. Absorbances at 280 nm and 480 nm were measured for Rhodamine B and Congo Red. […] Then, after the absorbances were calibrated based on the absorbances that were derived from the proteins and presumed by the amount of contained protein quantified using the protein assay CBB solution, the concentrations of small molecule agents were determined based on the calibration curves obtained by the absorbances of the molecules. […] As a result, the one-step process enabled incorporating also the small molecule agents with different physical properties such as molecular weight and pKa simply and easily.

[1] = cited from earlier work
[2] = cited from earlier work; remark: listed apart in the source
[3] = pKa of the organic compound; type: physicochemical; details: average of plural pKa values
From the text: The pKa of the organic compound can be determined by a neutralization titration method (Kagaku Binran Kiso-hen I and II (Handbook of Chemistry, basic I and II) (Ver. 4) edited by The Chemical Society of Japan, Maruzen Publishing, 1993). […] When the organic compound has a single pKa value, the value is employed as the pKa of the organic compound.

Structure (SMILES) | Incorporation efficiency (wt %) (FTH ferritin; pH 4, 40° C.) | Number of agent incorporated (FTH ferritin; pH 4, 40° C.) | Incorporation efficiency (wt %) (FTH ferritin; pH 6, 40° C.) | Number of agent incorporated (FTH ferritin; pH 6, 40° C.) | Incorporation efficiency (wt %) (FTH ferritin; pH 8, 40° C.) | Number of agent incorporated (FTH ferritin; pH 8, 40° C.) | Incorporation efficiency (wt %) (FTH ferritin; pH 10, 40° C.) | Number of agent incorporated (FTH ferritin; pH 10, 40° C.) | Optimal pH in reaction (FTH ferritin) | logP [1] | pKa ([2]; single or first pKa value) | also measured
Cc1ncc(C[n+]2csc(CCO)c2C)c(N)n1 [Thiamine] | 0.8 | 11.6 | 0.9 | 13.9 | 0.9 | 13.7 | 0.9 | 13.6 | 6 | −4.6 | 5.5 | 
NC(N)=Nc1nc(CSCCC(N)=NS(N)(=O)=O)cs1 [Famotidine] |  | 0.0 |  | 15.1 |  | 8.4 |  | 5.1 | 6 |  | 8.38 | Number of agent incorporated (FTH ferritin; pH 6, 20° C.): 36.9; Number of agent incorporated (FTH ferritin; pH 6, 60° C.): 23.4
NC(=O)c1cccnc1 [Nicotinamide] | 0.4 | 15.6 | 0.2 | 6.8 | 0.3 | 13.9 | 0.2 | 7.6 | 4 | −0.37 | 3.35 | 
CN1CC(=O)NC1=N [Creatinine] |  |  |  |  |  |  |  |  | 4 | −1.6 | 2.96 | Incorporation efficiency (wt %) (FTH ferritin; pH 4, 20° C.): 0.4 wt %; Number of agent incorporated (FTH ferritin; pH 4, 20° C.): 15.8; Incorporation efficiency (wt %) (FTH ferritin; pH 4, 60° C.): 0.5 wt %; Number of agent incorporated (FTH ferritin; pH 4, 60° C.): 24.8
CC(C)(C)NCC(O)c1cc(O)cc(O)c1 (stereo not drawn) [Terbutaline] | 0.0 | 0.0 | 0.9 | 19.5 | 0.9 | 21.0 | 1.2 | 27.1 | 10 | 0.9 | 8.86 | Incorporation efficiency (wt %) (FTH ferritin; pH 10, 20° C.): 1.4 wt %; Number of agent incorporated (FTH ferritin; pH 10, 20° C.): 32.8; Incorporation efficiency (wt %) (FTH ferritin; pH 10, 60° C.): 5.3 wt %; Number of agent incorporated (FTH ferritin; pH 10, 60° C.): 126.8; pKa [3]: 9.31; pKa ([2]; second pKa value): 9.76
